Values of other authors in patent US20180071214A1, “Pharmaceutical Oral Dose Formulation and Composition of Matter” (priority 2016, published 2018).

Experiments:
[1] = p-glycoprotein substrate

intestinal absorption [1]: negligible intestinal absorption
SMILES: CC[C@]1(O)C[C@@H]2CN(CCc3c([nH]c4ccccc34)[C@@](C(=O)OC)(c3cc4c(cc3OC)N(C)[C@H]3[C@@](O)(C(=O)OC)[C@H](OC(C)=O)[C@]5(CC)C=CCN6CC[C@]43[C@@H]65)C2)C1 [vinblastinee]
tissue effect after intravenous injection: severe tissue irritation and even damage
